Values of other authors in patent US20250221954A1, “METHODS TO TREAT, PREVENT, OR REDUCE HYPERAMMONEMIA” (priority 2024, published 2025).

Legend:
[1] = decrease in clearance with increased dose
[2] = prolonged, multiday maintenance of phenylacetate infusions

| SMILES | elimination [1] | potential neurotoxicity [2] |
| --- | --- | --- |
| O=C([O-])c1ccccc1.[Na+] [benzoate, sodium benzoate] | saturable, non-linear elimination | – |
| O=C([O-])Cc1ccccc1.[Na+] [phenylacetate, sodium phenylacetate] | saturable, non-linear elimination | somnolence, fatigue, and lightheadedness |
